How the values were obtained:
Assay type in all cases: in vitro ADME
UGT1A9 = target: T1, UGT1A9 (Homo sapiens, UniProt O60656); assay: Inhibition of UGT1A9 (propofol glucuronidation) in human liver microsomes
T1 construct: The reaction mixture containing 0.25 mg/mL protein of HLM; tissue Corning Life Sciences 452156; host or cells: pooled human liver microsomes, 50 donors
T1 sequence (O60656 26-530): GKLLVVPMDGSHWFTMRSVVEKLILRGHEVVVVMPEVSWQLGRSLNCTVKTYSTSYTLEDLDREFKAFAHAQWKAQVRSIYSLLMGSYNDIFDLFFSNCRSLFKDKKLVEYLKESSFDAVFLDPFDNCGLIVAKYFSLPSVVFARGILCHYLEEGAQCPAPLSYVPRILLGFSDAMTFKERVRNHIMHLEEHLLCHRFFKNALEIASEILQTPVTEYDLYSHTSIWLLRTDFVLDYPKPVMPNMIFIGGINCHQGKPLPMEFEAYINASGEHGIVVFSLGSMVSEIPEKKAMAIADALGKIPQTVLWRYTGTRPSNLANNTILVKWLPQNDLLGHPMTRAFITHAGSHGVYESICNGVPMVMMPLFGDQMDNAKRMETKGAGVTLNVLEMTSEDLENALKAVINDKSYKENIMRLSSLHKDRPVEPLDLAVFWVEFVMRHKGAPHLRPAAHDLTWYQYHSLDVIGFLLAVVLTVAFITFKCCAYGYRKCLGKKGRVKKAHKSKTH
Method: Their IC50 values were compared to that of sauchinone. […] UGT-mediated activities in the presence of sauchinone as an inhibitor were expressed as percentages of corresponding control values (in absence of sauchinone). From percentages of control activity versus inhibitor concentrations, a sigmoid shaped curve was fitted to the data and IC50 as an enzyme inhibition parameter was calculated by fitting the Hill equation to the data using GraphPad Prism 5 (GraphPad Software Inc., San Diego, CA, USA).

UGT1A6 = target: T2, UGT1A6 (Homo sapiens, UniProt P19224); assay: Enzyme kinetic assay (Ki, Dixon plot) of UGT1A6-mediated serotonin glucuronidation; conditions: for inhibition mode on UGT1A6: Dixon plot, visual inspection
T2 construct: tissue Corning Life Sciences 452156; host or cells: pooled human liver microsomes
T2 sequence (P19224 27-532): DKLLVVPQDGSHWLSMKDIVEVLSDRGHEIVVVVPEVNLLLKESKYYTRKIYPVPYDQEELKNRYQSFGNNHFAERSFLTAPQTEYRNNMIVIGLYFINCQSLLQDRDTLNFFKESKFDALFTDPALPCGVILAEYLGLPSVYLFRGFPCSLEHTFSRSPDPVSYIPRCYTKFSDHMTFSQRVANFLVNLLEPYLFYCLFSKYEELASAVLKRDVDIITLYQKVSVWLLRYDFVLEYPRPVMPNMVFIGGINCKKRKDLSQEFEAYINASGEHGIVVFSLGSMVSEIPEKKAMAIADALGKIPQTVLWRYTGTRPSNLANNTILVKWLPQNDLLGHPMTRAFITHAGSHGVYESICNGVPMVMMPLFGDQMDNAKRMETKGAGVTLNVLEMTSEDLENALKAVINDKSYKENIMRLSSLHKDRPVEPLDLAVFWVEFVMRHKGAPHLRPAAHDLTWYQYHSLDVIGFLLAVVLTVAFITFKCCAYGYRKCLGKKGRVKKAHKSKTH
Method: Inhibitory effects of sauchinone on UGT1A1, 1A3, 1A4, 1A6, 1A9, and 2B7 activities were evaluated using HLMs. […] Spiked volume of UGT cocktail set was 1% (v/v) of total volume of mixture. […] The reaction was initiated by adding 5 mM UDPGA to a final volume of 150 μL and incubated at 37 °C for 15 or 60 min in a thermomixer at 500 rpm. Each reaction was stopped by adding 150 μL of ice-cold methanol containing 50 ng/mL IS. These mixtures were then centrifuged (12,000 rpm for 10 min at 4 °C) and 5 μL of the supernatant was injected into a UPLC-MS/MS system. […] Their IC50 values were compared to that of sauchinone. All inhibitors were dissolved in methanol (except for hecogenin, which was dissolved in dimethyl sulfoxide) and serially diluted to the required concentrations using the same solutions. The final concentration of organic solvent of inhibitors was 1% (v/v). All studies were performed in triplicate and mean values were used in the analysis. The half maximal inhibition constant (IC50) of sauchinone on UGT isoforms was estimated using GraphPad program.
Based on IC50 values, Ki values of sauchinone for UGT1A6 and 2B7 were determined. Concentrations of 0–200 μM of sauchinone were used. Other procedures were similar to those mentioned above in the study of reversible inhibitory effects of sauchinone. Inhibitory characteristics of sauchinone were initially estimated by nonlinear least squares regression analysis and Ki values were determined by Dixon plots.

Ugt2b7 = assay: Inhibition of Ugt2b7 (zidovudine) in mice liver microsomes; conditions: mouse, pH 7.6, probe zidovudine (100 μM, in UGT substrate cocktail)
Method: Their IC50 values were compared to that of sauchinone. […] Mice were sacrificed and then livers were removed and rinsed with saline. After weighing the livers, they were homogenized with a four-fold volume of ice-cold homogenizing buffer (0.154 M KCl, 50 mM Tris-base, 1 mM EDTA, pH 7.4). After centrifugation for 35 min at 9000× g and 4 °C, the supernatants were centrifuged for 95 min at 100,000× g and at 4 °C. The supernatants were discarded and the pellets were homogenized again with ice-cold homogenizing buffer. These aliquots were stored at −80 °C. The subsequent process to evaluate the inhibitory effects of sauchinone on UGT activities in MLM was the same as those using HLM. UGT-mediated activities in the presence of sauchinone as an inhibitor were expressed as percentages of corresponding control values (in absence of sauchinone). From percentages of control activity versus inhibitor concentrations, a sigmoid shaped curve was fitted to the data and IC50 as an enzyme inhibition parameter was calculated by fitting the Hill equation to the data using GraphPad Prism 5 (GraphPad Software Inc., San Diego, CA, USA).

In the case of `C[C@@H]1[C@H]2c3cc4c(cc3O[C@@]35OCOC3=CC(=O)[C@H](C[C@H]1C)[C@@H]25)OCO4` [Sauchinone], the “inhibitory effect on UGT1A9 activity” value (UGT1A9; sauchinone up to 200 μM) is reported as “negligible inhibitory effect”, the IC50 (UGT1A9; substrate 100 μM propofol, mean (minimum–maximum)) is reported as greater than 200 µM and the Ki (UGT1A6) is reported as 1.08 µM. The “inhibition mode on UGT1A6” value (UGT1A6) was “noncompetitively inhibited”, the “inhibition mode on UGT1A6” value (UGT1A6; listed as sauchinone) was “noncompetitive inhibition mode” and the “Vmax for UGT1A6-mediated serotonin glucuronidation with inhibitor” value (UGT1A6; sauchinone as inhibitor at 50 μM (decrease from 174 at 0 μM)) was 6.36 μM/min/mg protein. The IC50 (Ugt2b7) was 23 µM.
